{"source": "patent US11229618B2", "about": "(Amarin Pharmaceuticals Ireland Limited, priority 2012, dated 2022)", "assay": "AAMI 6-week study: safety and tolerability", "format": "in vivo, human", "description": "All randomized subjects that received at least 1 dose of study medication were included in the Safety Population.\nSafety evaluations were based on the safety population. Safety and tolerability were assessed in terms of AEs, vital signs, 12-lead ECG, clinical laboratory data, medical history, and study drug compliance. Safety and tolerability data were presented by treatment group.", "data": [{"compound": "CC/C=C\\C/C=C\\C/C=C\\C/C=C\\C/C=C\\CCCC(=O)OCC", "note": "[IPE, all-cis eicosa-5,8,11,14,17-pentaenoic acid ethyl ester]", "values": [{"measurement": "TEAEs Definitely Related to the study drug", "result": "No TEAEs were Definitely Related"}, {"measurement": "deaths during the study", "result": "no deaths"}, {"measurement": "nausea Probably Related to the study drug", "setting": "1 g", "result": "One subject"}, {"measurement": "subjects with nausea Possibly Related to the study drug", "setting": "1 g cohort", "result": "two"}, {"measurement": "subjects with nausea Possibly Related to the study drug", "setting": "2 g cohort", "result": "one"}, {"measurement": "serious adverse events", "setting": "2 g treatment group", "result": "One SAE"}, {"measurement": "subjects discontinued due to TEAEs", "setting": "2 g treatment group", "result": 2, "unit": "subjects"}, {"measurement": "diarrhea Probably Related to the study drug", "setting": "4 g", "result": "Another subject"}, {"measurement": "subjects with nausea Possibly Related to the study drug", "setting": "4 g cohort", "result": "two"}, {"measurement": "severity and relatedness of most TEAEs", "setting": "all groups", "result": "mild in severity and unrelated to study drug"}, {"measurement": "treatment emergent AEs (TEAEs) reported", "setting": "ethyl-EPA treatment groups (placebo groups 34 events)", "result": 105, "unit": "events"}]}]}
